The source of these data is ChEMBL document CHEMBL1157539, “Thousands of chemical starting points for antimalarial lead identification” (Nature, 2010).

Structures are written as SMILES.

The test deals with Plasmodium falciparum. Kind of test: GSK_TCMDC: Inhibition of Plasmodium falciparum 3D7 in whole erythrocytes, using parasite LDH activity as an index of growth. The format is functional, organism-based. The settings on record: Plasmodium falciparum, 3D7.
The compound `O=c1c2ccccc2nc(/C=C/c2ccc([N+](=O)[O-])cc2)n1-c1ccccn1` yielded an XC50 of 382 nM.
Compound `COc1cc2c(cc1C(F)(F)F)N(C(=O)Nc1cc(Br)cc(-c3cccnc3)c1)CC2` showed an XC50 of 864 nM.
The figure for `CCN1CCC(N(Cc2ccc(-c3ccc(C(F)(F)F)cc3)cc2)C(=O)Cn2c(CCc3cccc(F)c3F)cc(=O)c3ccccc32)C1` (stereo unspecified) is 1010 nM.
`Cc1c(Cc2ccccc2Br)cnc2nc(N)nc(N)c12`: the XC50 worked out at 4.62 nM.
The result for `O=C(/C=C/c1ccc(Cl)c(Cl)c1)NCCCCCN1CCC(NC(=O)Nc2ccc(Cl)c(C(F)(F)F)c2)CC1` reads 650 nM.
The result for `CC(C)[C@H](NC(=O)c1ccc(O)c(-c2cccc(C(F)(F)F)c2)c1)C(=O)NCCN1CCCCC1` reads 836 nM; that for `Cc1ccc(CNC(=O)[C@H](Cc2ccccc2)Nc2cc(C)nc(NCc3ccccc3C)n2)cc1`, 803 nM; that for `COc1cc2nccc(Nc3ccc(Oc4ccccc4)cc3)c2cc1OC`, 684 nM.
The figure for `c1ccc(CNCc2cccc(-c3ccc(-c4nc5ccccc5[nH]4)s3)c2)cc1` is 818 nM.
In turn, `Cc1cc(N2CCCN(CC3CCCCC3)CC2)nc(Nc2ccc(Br)cc2)n1` registered an XC50 of 943 nM.
The figure for `CN(C)/C(=N/C(=N)NCc1ccc(Cl)c(Cl)c1)NCCCCCCN/C(=N\C(=N)NCc1ccc(Cl)c(Cl)c1)N(C)C` is 304 nM; for `Cc1noc(-c2ccc(N3CCC(C(=O)N4CCN(C(C)C)CC4)CC3)cc2)n1` it is 1070 nM.
The result for `Cc1cnc(-c2ccc(NC(=O)N3CCc4cc5nccc(N6CCN7CCC[C@H]7C6)c5cc43)c3ccccc23)o1` reads 858 nM; that for `CCN(CC)CCNc1c2ccc(Cl)cc2nc2ccc(OC)nc12`, 736 nM; that for `C[C@H](NC(=O)[C@H](Cc1ccccc1)NC(=O)OC(C)(C)C)C(=O)N[C@@H](CC1CCCCC1)C(O)CN` (stereo partly specified), 733 nM.
The figure for `CCCC(=O)Nc1ccc(OCCCN(Cc2ccccc2C(F)(F)F)c2ccc(C#N)c(C(F)(F)F)c2)cc1` is 926 nM; for `CCN(CC)/C(=N/C(=N)NCc1ccc(Cl)cc1Cl)NCCCCCCN/C(=N\C(=N)NCc1ccc(Cl)cc1Cl)N(CC)CC` it is 218 nM; for `O=C(c1ccc(Cl)c(Cl)c1)N1CCc2c([nH]c3ccccc23)C1CN1CCCC1` (stereo unspecified) it is 825 nM.
`Cc1cc(Nc2ccc(O)cc2)nc2cccc(O)c12` registered an XC50 of 742 nM.
The result for `COc1ccc(CCNCCCCCCNCCc2ccc(Cl)c3ccccc23)cc1OC` reads 580 nM; that for `Cc1cc(F)ccc1[C@H]1CNCCN1C(=O)N(C)C(C)(C)c1cc(C(F)(F)F)cc(C(F)(F)F)c1`, 594 nM.
The result for `Nc1nc(N)c2cc(NC(=O)c3ccc(Cl)c(Cl)c3)ccc2n1` reads 146 nM.
The figure for `SC(=Nc1ccc(Cl)c(Cl)c1)NN=Cc1ccccn1` is 768 nM; for `COc1ccc(CC(=O)NC(CCN2CCC3(CCc4ccccc43)CC2)c2ccc(Cl)c(Cl)c2)cc1` (stereo unspecified) it is 525 nM; for `CCOc1ccc(C(C)NC(=O)Nc2ccccc2)cc1OCC` (stereo unspecified) it is 901 nM.
For the compound `CC1N=C(N)N=C(N)N1OCc1cccc2ccccc12` (stereo unspecified), the XC50 was found to be 3.2 nM.
In turn, `COc1ccc2ncc(Cl)c(CCN3CC[C@@H](CNCc4cc5c(cn4)OCS5)C3)c2n1` showed an XC50 of 811 nM.
The result for `Cc1ccc(C)c(S(=O)(=O)NCC2CCN(Cc3ccc(O)cc3)CC2)c1` reads 978 nM; that for `O=C(NC(NC(=S)Nc1ccc([N+](=O)[O-])cc1)C(Cl)(Cl)Cl)c1cccc(Cl)c1` (stereo unspecified), 731 nM; that for `COc1ccc(-n2ccnc2SCC(=O)Nc2cc(Cl)ccc2OC)c(OC)c1`, 734 nM.
Consider `COc1ccc2c(c1)Nc1ccc(Cl)cc1C2N` (stereo unspecified), for which the XC50 amounted to 303 nM.
The figure for `CC1(CCCCN2CC=C(c3c[nH]c4ccccc34)CC2)C(=O)Nc2ccccc21` (stereo unspecified) is 138 nM; for `CC(=O)N(Cc1nc(-c2cc(Cl)c(Cl)s2)cs1)c1c(C)cccc1C` it is 333 nM.
The figure for `COc1ccc(Cc2cnc(N)nc2N)cc1OCCCOc1ccccc1` is 911 nM; for `O=C(Nc1cc(Cl)cc(Cl)c1)Nc1ccccc1C(=O)NC1CCCCC1` it is 749 nM.
The figure for `O=C(Nc1cccc(-c2nn3ccccc3c2-c2ccnc(Nc3ccccc3)n2)c1)c1c(F)cccc1F` is 715 nM; for `CCCC(C)NC(=O)[C@H](Cc1ccccc1)NC(=O)c1ccc(O)c(-c2ccc(OC)cc2)c1` (stereo partly specified) it is 1240 nM; for `O=C(/C=C/C=C/c1ccccc1)NC1CCC(CN2CCC(c3c[nH]c4ccccc34)CC2)CC1` (stereo unspecified) it is 868 nM.
`CC(C)C[C@H](NC(=O)c1cc2ccccc2s1)C(=O)N[C@H]1CCN(Cc2ccc(I)c(OC3CCN(C)C3)c2)C1` (stereo partly specified) displayed an XC50 of 920 nM.
The figure for `COc1ccc2nccc([C@@H](O)CN3CCC(NCc4ccc(OC)c(NC=O)c4)CC3)c2c1` is 753 nM; for `C=CCOC(=O)N1CCC(CNCc2ccc(-c3cccc(-c4nc5cccc(C)c5[nH]4)c3)cc2)C1` (stereo unspecified) it is 118 nM.
The result for `Cc1cc(=NN=Cc2ccccn2)c2cc(C(F)(F)F)ccc2[nH]1` reads 621 nM; that for `CCN1CCN(CCCNc2ccnc3cc(Cl)ccc23)CC1`, 67 nM; that for `CCN1CCN(CC(O)CNC(=O)Nc2ccc(Cl)cc2)CC1` (stereo unspecified), 150 nM.
The result for `CC1CN(c2cnn(Cc3ccc(NC(=O)Nc4cccc(C(F)(F)F)c4)cc3)c(=O)c2Cl)CC(C)N1` (stereo unspecified) reads 940 nM; that for `CCCCNC(=N)Nc1ccc(OCCCOc2ccc(NC(=N)NCCCC)cc2)cc1`, 164 nM.
In turn, `Cc1cccc(Cn2nc(-c3ccccc3)c(N3CCCCC3)cc2=O)c1` came in with an XC50 of 464 nM.
The result for `Cc1nnsc1C(=O)Nc1ccc(-c2cccc(-c3nc4cc(F)ccc4[nH]3)c2)cc1` reads 766 nM; that for `CC[C@H]1CN2CC[C@H]1C[C@H]2[C@H](O)c1ccnc2ccc(O)cc12`, 643 nM; that for `COc1ccc2ccc(F)c(CCN3CCC(NCc4cc5c(cn4)OCCO5)CC3)c2n1`, 840 nM.
The result for `CC(C)OC(=O)c1cccnc1SCC(=O)Nc1ccc(C(F)(F)F)cc1Cl` reads 400 nM; that for `CCNC(=O)c1cc(S(=O)(=O)N2CCN(c3ccccn3)CC2)cs1`, 866 nM; that for `O=C1COc2ccccc2N1C/C=C(\CN1CCC(c2ccccc2)CC1)c1cc(Cl)cc(Cl)c1`, 215 nM.
The figure for `COc1ccc(-c2cccc(NC(=O)c3cccc(F)c3)c2)cc1CN1CCCN(C)CC1` is 603 nM; for `O=C(N[C@@H](CC1CCCCC1)C(=O)NCc1cccc2ccccc12)c1ccc(O)c(-c2ccc(Cl)c(Cl)c2)c1` it is 216 nM; for `COCCN1CCC(N(CC2(O)CCN(c3ccc(C(F)(F)F)cc3)CC2)C(=O)Cn2c(SCc3cccc(F)c3F)cc(=O)c3ccccc32)CC1` it is 807 nM.
The compound `CCc1cn2c3c(cc(C(=O)N[C@@H](Cc4ccccc4)[C@H](O)CNCC(C)C)cc13)N(C)S(=O)(=O)CC2` had an XC50 of 37.6 nM.
The result for `COc1cc(CNCCCNc2nc(=O)c3sccc3[nH]2)c2[nH]cc(Cl)c2c1` reads 888 nM; that for `Cc1c(-c2ccccc2)ccc2[nH]cc(CC#N)c12`, 703 nM; that for `Nc1ncc(-c2ccc(F)cc2)cc1-c1nc2ccc(Cl)cc2[nH]1`, 753 nM.
The figure for `Cc1ccc(CNC(=O)[C@H](Cc2ccccc2)Nc2cc(C)nc(NCCc3ccc(F)cc3)n2)cc1` is 980 nM; for `O=C(C=Cc1ccc(Cl)c(Cl)c1)NCCCCCN1CCCC(CCCNC(=O)c2sc3ccccc3c2Cl)C1` (stereo unspecified) it is 1030 nM.
The result for `Cc1ccccc1CNc1noc(-c2sccc2Br)n1` reads 380 nM; that for `C(=NNc1nc2ccccc2[nH]1)c1ccccc1OCc1ccccc1`, 256 nM.
The compound `CC(C)N1CCC(NC(=O)N2CCCN(c3ncnc4cc(-c5ccc(Cl)cc5)sc34)CC2)CC1` registered an XC50 of 1940 nM.
The result for `CCCN1CCN(CCNC(=O)c2cccc(Nc3nccc(Nc4ccc(Oc5ccccc5)cc4)n3)c2)CC1` reads 239 nM; that for `NCc1ccc(-c2cccc(CNC3CCN(Cc4ccccc4)CC3)c2)cc1`, 672 nM; that for `CC(C)CNCc1ccc(-c2cccc(CN(CCCN3CCN(C)CC3)C(=O)/C=C/c3ccccc3)c2)cc1`, 872 nM.
The result for `CNCCNc1nccc(N2CCc3ncnc(Nc4ccc(OCc5cccc(F)c5)c(Cl)c4)c3C2)n1` reads 197 nM; that for `O=C1COC2(CN1C1CCN(Cc3ccc(O)c(Cl)c3)C1)c1ccccc1-c1ccccc12` (stereo unspecified), 960 nM; that for `COc1ccc2nccc([C@H](O)CN3CCC(NCc4ccc5c(c4C)OCCO5)CC3)c2n1`, 886 nM.
The figure for `COc1cc(NC(=O)N2CCc3ccc(OCCC4CCCN4C)cc32)cc(C(F)(F)F)c1` (stereo unspecified) is 714 nM; for `CC(C)CCNC(=O)C1Cc2c([nH]c3cc(Br)ccc23)C2(CCN(CCc3ccccc3)CC2)N1` (stereo unspecified) it is 910 nM.
On to `COc1cc(NC(=O)c2c(-c3c(F)cccc3Cl)noc2C)c(OC)cc1Cl`, for which the XC50 stood at 861 nM.
The figure for `CCOC(=O)Cc1nc(C(=O)OCC)c(N)[nH]1` is 647 nM; for `CC[C@H](C)CNC(=O)c1cncc(-c2ccc(CN3CCC(N4CCCC4)CC3)cc2)c1` it is 968 nM.
The result for `CCCCN(Cc1cc(Cl)c(OC)c(OC)c1)c1ccc(C(O)(C(F)(F)F)C(F)(F)F)cc1` reads 194 nM; that for `COc1ccc2ncc(F)c(CCN3CC[C@@H](CNCc4cc5c(cn4)OCS5)C3)c2n1`, 1160 nM.
The figure for `COc1cc(NC(=O)/C=C/c2ccc(-c3ccccc3)cc2)ccc1OCCN(C(C)C)C(C)C` is 843 nM.
`COc1ccc2nccc([C@@H](O)CN3CCC(NCc4ccc5cccc(O)c5n4)CC3)c2n1` had an XC50 of 912 nM.
The result for `C[C@H](NC(=O)c1cc(-c2ccc(C(C)(C)C)cc2)no1)C(=O)O.C[C@H](NC(=O)c1conc1-c1ccc(C(C)(C)C)cc1)C(=O)O` reads 140 nM; that for `COC(=O)[C@@H](NC(=O)[C@H](CC(C)C)Nc1ccc(C#N)c2ccccc12)c1ccc(O)cc1`, 788 nM; that for `O=C(Nc1ccsc1C(=O)NC1CCCCC1)c1ccc(F)cc1`, 1210 nM.
The figure for `COc1ccccc1N1CCN(CCCCN(C(=O)Nc2cccc(Cl)c2)C(=O)Nc2cccc(Cl)c2)CC1` is 707 nM.
The figure for `Cc1cnc(NCCc2ccc(F)cc2)nc1NCCC(=O)Nc1ccccc1` is 946 nM; for `CC(CCCCOCCc1ccccc1)NCC(O)c1cc(Cl)c(N)c(Cl)c1` (stereo unspecified) it is 788 nM.
